This assay concerns the target T1, Prolyl endopeptidase (Homo sapiens, UniProt P48147).
T1 sequence (P48147 whole entry): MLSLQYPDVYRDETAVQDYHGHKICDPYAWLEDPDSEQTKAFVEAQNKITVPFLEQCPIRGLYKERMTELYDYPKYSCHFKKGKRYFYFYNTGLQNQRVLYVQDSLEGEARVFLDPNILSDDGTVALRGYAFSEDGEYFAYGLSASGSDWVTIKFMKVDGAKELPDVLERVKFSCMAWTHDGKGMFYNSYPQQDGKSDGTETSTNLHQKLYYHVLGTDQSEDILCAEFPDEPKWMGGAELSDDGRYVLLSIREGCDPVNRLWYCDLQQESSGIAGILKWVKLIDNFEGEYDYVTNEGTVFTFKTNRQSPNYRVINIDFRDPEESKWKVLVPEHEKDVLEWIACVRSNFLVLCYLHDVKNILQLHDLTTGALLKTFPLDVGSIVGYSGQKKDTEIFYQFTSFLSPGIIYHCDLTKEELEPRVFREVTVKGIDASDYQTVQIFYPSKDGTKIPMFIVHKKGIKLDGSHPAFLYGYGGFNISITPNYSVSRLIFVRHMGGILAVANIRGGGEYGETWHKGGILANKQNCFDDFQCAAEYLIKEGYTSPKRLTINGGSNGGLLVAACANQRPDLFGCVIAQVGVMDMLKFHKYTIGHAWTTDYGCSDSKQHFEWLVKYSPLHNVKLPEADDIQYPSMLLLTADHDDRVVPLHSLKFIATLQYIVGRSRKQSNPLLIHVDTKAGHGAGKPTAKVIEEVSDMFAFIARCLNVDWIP
The experiment in a line: Compound was evaluated for the inhibition of prolyl endopeptidase (PEP) purified from human peripheral blood mononuclear cells.

Consider `COCC1COC(C2CCCN2C(=O)C2CCCN2C(=O)OCc2ccccc2)O1` (configuration not stated), for which the 50% inhibitory concentration (IC50) is 6.5 µM. With `COC(OC)C1CSCN1C(=O)C1CSCN1C(=O)OCc1ccccc1` (configuration not stated), the half-inhibitory concentration (IC50) was determined as 2.6 µM.

One may read the IC50 as the midpoint of a concentration-inhibition curve. Read a low IC50 as greater potency in that assay.
